# In patent US6255250A, “Plant growth regulators in pyrrolidone solvents” (BASF Corporation, priority 1997, dated 2001):
# Key:
# physchem = conditions: water
# Experimental: Formulations of the present invention were prepared as described in Example 1 and were tested for hydrolysis half-life.
# horticultural plants = conditions: several horticultural plants; cited from earlier work
# peach = conditions: low rate (0.08 mM); cited from earlier work
# cotton plants = conditions: approximately 62.5 to 500 g ai/ha assuming spray volume 500 l/ha; cited from earlier work
# Cotton = format: in vivo; conditions: mc column, mepiquat chloride 12 g/ha
# Text: This resulting composition was mixed with PIX® mepiquat chloride plant growth regulator (BASF Corporation) such that the mepiquat chloride was applied to cotton in field studies at a rate of 12 g/ha and the {[(isopropylidene)-amino]oxy}-acetic acid-2-(methoxy)-2-oxoethyl ester contained in the solvent with an emulsifier system was applied at 1 and 10 g/ha.
compound,measurement,setting,value
COC(=O)COC(=O)CON=C(C)C [{[(isopropylidene)-amino]oxy}-acetic acid-2-(methoxy)-2-oxoethyl ester],half-life,physchem,12 to 21 days
O=P(O)(O)CCCl [ethephon],effect on yields and hardiness,horticultural plants,increased the yields and hardiness of several horticultural plants
same,effect on bloom and side effects in peach,peach,significantly delayed bloom in peach and reduced side effects
NCCOC=CC(N)C(=O)O (stereo not drawn) [aminoethoxyvinylglycine],improvement in a plant growth factor with increasing rate,cotton plants,"As the rate of AVG treatment increased, so did the improvement"
C[N+]1(C)CCCCC1 [mepiquat chloride],Frequency of Positive Yield,Cotton,38%
same,Relative Yield (% compared to untreated),Cotton,102%
